From patent publication US10913738B2 (BRISTOL-MYERS SQUIBB COMPANY, priority 2017, dated 2021) come the findings set out here.

Experiment [1] has as its target T1, His-GST-TVMV-hRIPK1(1-324) (Homo sapiens, UniProt Q13546).
T1 construct: The coding region of human RIPK1(1-324) flanked by NdeI site at 5′ end; made in house; host or cells: Spodoptera frugiperda (Sf9) insect cells, baculovirus
T1 sequence (Q13546 1-324): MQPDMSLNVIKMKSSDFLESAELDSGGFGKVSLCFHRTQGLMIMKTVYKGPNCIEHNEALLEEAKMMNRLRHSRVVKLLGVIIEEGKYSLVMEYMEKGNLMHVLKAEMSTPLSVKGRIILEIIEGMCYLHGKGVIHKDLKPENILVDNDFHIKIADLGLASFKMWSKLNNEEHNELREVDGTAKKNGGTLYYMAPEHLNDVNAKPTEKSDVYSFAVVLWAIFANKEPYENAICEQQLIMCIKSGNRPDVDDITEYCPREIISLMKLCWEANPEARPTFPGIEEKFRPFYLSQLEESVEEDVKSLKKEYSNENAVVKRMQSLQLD
Description: RIPK1 HTRF Binding Assay.

The subject of experiment [2] is MLKL phosphorylation in HT29-L23 human colorectal adenocarcinoma cells. Description: MLKL Phosphorylation High-Content Assay. It is filed as cell-based. The following applies: Homo sapiens. Put shortly:
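IC50 and Ymax obtained by 4-parameter logistic fitting of MLKL phosphorylation, measured as mean circ-ring average intensity ratio from high-content images. Staining used an anti-phospho-S358 MLKL antibody overnight at 4° C., following six-hour cell incubation at 37° C.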

Where [3] appears, read: x marks IC50 class <20 nM, read-out: RIPK1 HTRF binding <20 nM.
Setting [4] is: x marks IC50 class <20 nM, read-out: pMLKL cell activity <20 nM.
The mark [5] stands for this setting: x marks IC50 class 20-200 nM, read-out: pMLKL cell activity 20-200 nM.
Setting [6] is: x marks IC50 class 20-200 nM, read-out: RIPK1 HTRF binding 20-200 nM.
[7] abbreviates: x marks IC50 class >200 nM, read-out: pMLKL cell activity >200 nM.

Structures are written as SMILES. Where two headings read alike, the source gives them in different places. Bounds are passed on as bounds.

As for `COc1nc(C)c(-c2ccn3nc(N)nc3c2)cc1C(=O)NCc1c(F)cccc1OCC1CC1` [Example 215, 5-{2-amino-[1,2,4]triazolo[1,5-a]pyridin-7-yl}-N-{[2-(cyclopropylmethoxy)-6-fluorophenyl]methyl}-2-methoxy-6-methylpyridine-3-carboxamide], the IC50 in experiment [1] (setting [3]) and in experiment [2] (setting [4]) was less than 20 nM each time.

In the case of `COc1nc(C)c(-c2ccn3nc(N)nc3c2)cc1C(=O)NCc1cc(F)ccc1OC1CCCC1` [Example 216, 5-{2-amino-[1,2,4]triazolo[1,5-a]pyridin-7-yl}-N-{[2-(cyclopentyloxy)-5-fluorophenyl]methyl}-2-methoxy-6-methylpyridine-3-carboxamide], the IC50 in experiment [1] (setting [3]) and in experiment [2] (setting [4]) was less than 20 nM each time.

As to `COc1nc(C)c(-c2ccn3nc(N)nc3c2)cc1C(=O)NCc1c(F)cccc1OC1CCCC1` [Example 217, 5-{2-amino-[1,2,4]triazolo[1,5-a]pyridin-7-yl}-N-{[2-(cyclopentyloxy)-6-fluorophenyl]methyl}-2-methoxy-6-methylpyridine-3-carboxamide], the values for the IC50 in experiment [1] (setting [3]) and in experiment [2] (setting [5]) were less than 20 nM and 20 to 200 nM, respectively.

On to `COc1nc(C)c(-c2ccn3nc(N)nc3c2)cc1C(=O)NCCC(C)c1ccccc1` (stereo not drawn) [Example 218, 5-{2-amino-[1,2,4]triazolo[1,5-a]pyridin-7-yl}-2-methoxy-6-methyl-N-(3-phenylbutyl)pyridine-3-carboxamide], for which the IC50 in experiment [1] (setting [3]) and in experiment [2] (setting [4]) was less than 20 nM throughout.

`COc1nc(C)c(-c2ccn3nc(N)nc3c2)cc1C(=O)NCc1ccccc1OC1CCCC1` [Example 219, 5-{2-amino-[1,2,4]triazolo[1,5-a]pyridin-7-yl}-N-{[2-(cyclopentyloxy)phenyl]methyl}-2-methoxy-6-methylpyridine-3-carboxamide]: the IC50 in experiment [1] (setting [3]) and in experiment [2] (setting [4]) was less than 20 nM each time.

Regarding `COc1nc(C)c(-c2ccn3nc(N)nc3c2)cc1C(=O)NCc1c(F)cccc1OCC1CCCC1` [Example 220, 5-{2-amino-[1,2,4]triazolo[1,5-a]pyridin-7-yl}-N-{[2-(cyclopentylmethoxy)-6-fluorophenyl]methyl}-2-methoxy-6-methylpyridine-3-carboxamide], the IC50 in experiment [1] (setting [3]) was less than 20 nM; in experiment [2] (setting [5]), 20 to 200 nM.

For `COc1nc(C)c(-c2ccn3nc(N)nc3c2)cc1C(=O)NCc1ccccc1OCC1CC1` [Example 221, 5-{2-amino-[1,2,4]triazolo[1,5-a]pyridin-7-yl}-N-{[2-(cyclopropylmethoxy)phenyl]methyl}-2-methoxy-6-methylpyridine-3-carboxamide], the IC50 in experiment [1] (setting [3]) and in experiment [2] (setting [4]) was less than 20 nM each time.

For `[2H]C([2H])(NC(=O)c1cc(-c2ccn3nc(N)nc3c2)c(C)nc1OC)c1cc(OC(F)(F)F)ccc1F` [Example 222, 5-{2-amino-[1,2,4]triazolo[1,5-a]pyridin-7-yl}-N-{[2-fluoro-5-(trifluoromethoxy)phenyl](deutero)methyl}-2-methoxy-6-methylpyridine-3-carboxamide], the IC50 in experiment [1] (setting [3]) and in experiment [2] (setting [4]) was less than 20 nM in each case.

Take `COc1nc(C)c(-c2ccn3nc(N)nc3c2)cc1C(=O)NC(C)c1cccc(OC(F)(F)F)c1` (stereo not drawn) [Example 223, 5-{2-amino-[1,2,4]triazolo[1,5-a]pyridin-7-yl}-2-methoxy-6-methyl-N-{1-[3-(trifluoromethoxy)phenyl]ethyl}pyridine-3-carboxamide]: the IC50 in experiment [1] (setting [3]) was less than 20 nM; in experiment [2] (setting [5]) it was 20 to 200 nM.

On to `Cc1ncc(-c2ccn3nc(N)nc3c2)cc1C(=O)NCC[C@@H](O)c1ccc(Cl)cc1` [Example 224], for which the IC50 in experiment [1] (setting [3]) is less than 20 nM; in experiment [2] (setting [5]) it was 20 to 200 nM.

On to `Cc1ncc(-c2ccn3nc(N)nc3c2)cc1C(=O)NCC[C@H](O)c1ccc(Cl)cc1` [Example 225], for which the IC50 in experiment [1] (setting [6]) and in experiment [2] (setting [5]) was 20 to 200 nM throughout.

In the case of `Cc1ncc(-c2ccn3nc(N)nc3c2)cc1C(=O)NCc1cc(C(F)(F)F)ccc1F` [Example 226, 5-{2-amino-[1,2,4]triazolo[1,5-a]pyridin-7-yl}-N-{[2-fluoro-5-(trifluoromethyl)phenyl]methyl}-2-methylpyridine-3-carboxamide], the IC50 in experiment [1] (setting [6]) and in experiment [2] (setting [5]) was 20 to 200 nM in each case.

Regarding `Cc1ncc(-c2ccn3nc(N)nc3c2)cc1C(=O)NCCc1cccc(OC(F)(F)F)c1` [Example 227, 5-{2-amino-[1,2,4]triazolo[1,5-a]pyridin-7-yl}-2-methyl-N-{2-[3-(trifluoromethoxy)phenyl]ethyl}pyridine-3-carboxamide], the IC50 is 20 to 200 nM in experiment [1] (setting [6]) and greater than 200 nM in experiment [2] (setting [7]).

With `Cc1ncc(-c2ccn3nc(N)nc3c2)cc1C(=O)NCc1c(F)cc(F)cc1OCC1CCCC1` [Example 228], the figures for the IC50 in experiment [1] (setting [3]) and in experiment [2] (setting [5]) were less than 20 nM and 20 to 200 nM, respectively.

As for `Cc1ncc(-c2ccn3nc(N)nc3c2)cc1C(=O)NCc1cc(OC(F)(F)F)ccc1F` [Example 229, 5-{2-amino-[1,2,4]triazolo[1,5-a]pyridin-7-yl}-N-{[2-fluoro-5-(trifluoromethoxy)phenyl]methyl}-2-methylpyridine-3-carboxamide], the IC50 in experiment [1] (setting [3]) was less than 20 nM; in experiment [2] (setting [5]), 20 to 200 nM.

`Cc1ncc(-c2ccn3nc(N)nc3c2)cc1C(=O)NCc1ccccc1OCC1CCCCC1` [Example 230, 5-{2-amino-[1,2,4]triazolo[1,5-a]pyridin-7-yl}-N-{[2-(cyclohexylmethoxy)phenyl]methyl}-2-methylpyridine-3-carboxamide]: the IC50 in experiment [1] (setting [3]) was less than 20 nM; in experiment [2] (setting [5]), 20 to 200 nM.

`Cc1ncc(-c2ccn3nc(N)nc3c2)cc1C(=O)NCc1cccnc1OCC1CCCC1` [Example 231, 5-{2-amino-[1,2,4]triazolo[1,5-a]pyridin-7-yl}-N-{[2-(cyclopentylmethoxy)pyridin-3-yl]methyl}-2-methylpyridine-3-carboxamide]: the IC50 in experiment [1] (setting [6]) is 20 to 200 nM; in experiment [2] (setting [7]), greater than 200 nM.

For the compound `Cc1ncc(-c2ccn3nc(N)nc3c2)cc1C(=O)NCc1cc(F)cc(F)c1OCC1CCCC1` [Example 232], the IC50 in experiment [1] (setting [3]) is less than 20 nM; in experiment [2] (setting [5]), 20 to 200 nM.

Regarding `Cc1ncc(-c2ccn3nc(N)nc3c2)cc1C(=O)NCc1cccnc1OCC1CCC1` [Example 233, 5-{2-amino-[1,2,4]triazolo[1,5-a]pyridin-7-yl}-N-{[2-(cyclobutylmethoxy)pyridin-3-yl]methyl}-2-methylpyridine-3-carboxamide], the values for the IC50 in experiment [1] (setting [3]) and in experiment [2] (setting [7]) were less than 20 nM and greater than 200 nM, respectively.

Take `Cc1ncc(-c2ccn3nc(N)nc3c2)cc1C(=O)NC(C)c1cccc(OC(F)(F)F)c1` (stereo not drawn) [Example 234, 5-{2-amino-[1,2,4]triazolo[1,5-a]pyridin-7-yl}-2-methyl-N-{1-[3-(trifluoromethoxy)phenyl]ethyl}pyridine-3-carboxamide]: the IC50 is 20 to 200 nM in experiment [1] (setting [6]) and greater than 200 nM in experiment [2] (setting [7]).

Consider `Cc1ncc(-c2ccn3nc(N)nc3c2)cc1C(=O)NCc1cc(F)cc(F)c1OCC1CC1` [Example 235, 5-{2-amino-[1,2,4]triazolo[1,5-a]pyridin-7-yl}-N-{[2-(cyclopropylmethoxy)-3,5-difluorophenyl]methyl}-2-methylpyridine-3-carboxamide], for which the results for the IC50 in experiment [1] (setting [3]) and in experiment [2] (setting [5]) were less than 20 nM and 20 to 200 nM, respectively.
